Source: patent US11230527B2, “Solid forms of 2-(5-(4-(2-morpholinoethoxy)phenyl)pyridin-2-yl)-n- benzylacetamide” (Athenex HK Innovative Limited, priority 2017, dated 2022)

Tests used:
Format in all cases: physicochemical
[1] = HPLC chemical stability after storage at various conditions; conditions: for Area Percent at 248 nm T1 week: 1 week; for Area Percent at 248 nm T2 week: 2 weeks; for Area Percent at 248 nm T4 week: 4 weeks; for Area Percent at 248 nm T8 week: 8 weeks; for change in HPLC area percent purity (LCAP): selected storage conditions, time points over eight-week study
Description: High-performance Liquid Chromatography (HPLC) analysis was performed to determine the chemical stability of Forms A, B, and C of Compound A after storage at various conditions, using an Agilent 1100 system with DAD. Chemical stability was estimated by measuring and comparing the area percent of the material peak at various time points. For High-performance Liquid Chromatography (HPLC) analysis, an Agilent 1100 system with DAD was used.

[2] = Dynamic Vapor Sorption (DVS); conditions: for XRPD pattern after exposure to DVS experiment: 25° C. and RH up to 95%; for water uptake: between 0 and 80% RH at between 25° C. and 45° C.
Description: Dynamic Vapor Sorption (DVS) was measured using a SMS (Surface Measurement Systems) DVS Intrinsic. The test was performed at 25° C. while the RH was varied from 0% to 95% at 10% increments in the range of 0% RH-90% RH and at 5% increment up to 95% RH. The change in mass after each increase or decrease in the RH was recorded as a percentage of the original mass of the starting material. Dynamic Vapor Sorption (DVS) was measured using a SMS (Surface Measurement Systems) DVS Intrinsic, using the following parameters: [table]

[3] = XRPD physical form stability under storage conditions; conditions: up to eight weeks
Description: (§1) XRPD analysis is carried out using a diffractometer running in reflection mode. The 2-theta position is calibrated against a standard before running the experiment. XRPD analysis was carried out on a Panalytical X'Pert^3 Powder XRPD on a Si zero-background holder, scanning the samples between 3 and 40° 2-theta. The 2-theta position was calibrated against Panalytical 640 Si powder standard. The test material was gently compressed on a glass disc inserted into a sample holder. The sample was then loaded into a Panalytical X'Pert^3 Powder XRPD diffractometer running in reflection mode and analyzed, using the following experimental conditions.

Solubility estimation = test: Solubility estimation
Description: Solubility of the solid forms of the present application in a variety of solvents is measured. Solvent is added to a sample until the total volume reaches 100 μL, followed by 100 μL per step until the sample is dissolved or the concentration is less than <1.0 mg/mL. The approximate solubility is then calculated.
Solubility of the solid forms of the present application in a variety of solvents was measured according to the following procedures. A sample (˜2 mg) was weighed into a 4-mL glass vial. Solvent was added into the vial stepwise at 50 μL per step until the total volume was 100 μL, followed by 100 μL per step until concentration was less than 1.0 mg/mL. The solutions were mixed thoroughly after each addition by sonication for 2 minutes and vortexing for 1 minute. The addition of solvent was complete if the sample was dissolved or the concentration was <1.0 mg/mL. The volumes of solvent (V1 and V2) were recorded, and approximate solubility was calculated.

[4] = XRPD after air-drying or vacuum drying
Description: as §1, with “XRPD” for “XRPD analysis is carried out using a diffractometer running in reflection mode. The 2-theta position is calibrated against a standard before running the experiment. XRPD”

Structure (SMILES) | Area Percent at 248 nm T1 week ([1]; 25° C./60% RH) | Area Percent at 248 nm T2 week ([1]; 25° C./60% RH) | Area Percent at 248 nm T4 week ([1]; 25° C./60% RH) | Area Percent at 248 nm T8 week ([1]; 25° C./60% RH) | Area Percent at 248 nm T0 ([1]; 25° C./60% RH) | Area Percent at 248 nm T1 week ([1]; 40° C./75% RH) | Area Percent at 248 nm T2 week ([1]; 40° C./75% RH) | Area Percent at 248 nm T4 week ([1]; 40° C./75% RH) | Area Percent at 248 nm T8 week ([1]; 40° C./75% RH) | Area Percent at 248 nm T0 ([1]; 40° C./75% RH) | Area Percent at 248 nm T1 week ([1]; 55° C./75% RH) | Area Percent at 248 nm T2 week ([1]; 55° C./75% RH) | Area Percent at 248 nm T4 week ([1]; 55° C./75% RH) | Area Percent at 248 nm T8 week ([1]; 55° C./75% RH) | Area Percent at 248 nm T0 ([1]; 55° C./75% RH) | Area Percent at 248 nm T1 week ([1]; Ambient) | Area Percent at 248 nm T2 week ([1]; Ambient) | Area Percent at 248 nm T4 week ([1]; Ambient) | Area Percent at 248 nm T8 week ([1]; Ambient) | Area Percent at 248 nm T0 ([1]; Ambient) | other results
O=C(Cc1ccc(-c2ccc(OCCN3CCOCC3)cc2)cn1)NCc1ccccc1 [Form B, 2-(5-(4-(2-morpholinoethoxy)phenyl)pyridin-2-yl)-N-benzylacetamide] | 99.8 Area Percent | 99.7 Area Percent | 99.8 Area Percent | 99.8 Area Percent | 99.8 Area Percent | 99.8 Area Percent | 99.8 Area Percent | 99.7 Area Percent | 99.8 Area Percent | 99.8 Area Percent | 99.8 Area Percent | 99.7 Area Percent | 99.7 Area Percent | 99.7 Area Percent | 99.8 Area Percent | 99.8 Area Percent | 99.7 Area Percent | 99.8 Area Percent | 99.8 Area Percent | 99.8 Area Percent | change in HPLC area percent purity (LCAP) [1]: no significant decrease; hygroscopicity [2]: non-hygroscopic; XRPD pattern after exposure to DVS experiment [2]: does not change; water uptake [2]: less than 0.2 % w/w; change in physical form (XRPD) ([3]; 25° C./60% RH): no change in physical form; change in physical form (XRPD) ([3]; 40° C./75% RH): no change in physical form; change in physical form (XRPD) ([3]; 55° C./75% RH): no change in physical form; change in physical form (XRPD) ([3]; ambient conditions): no change in physical form; thermodynamic aqueous solubility (Solubility estimation; aqueous): below 1.5 mg/ml; aqueous solubility (dissolved completely) (Solubility estimation; aqueous solution (e.g., water), room temperature): > 20 mg/mL
O=C(Cc1ccc(-c2ccc(OCCN3CCOCC3)cc2)cn1)NCc1ccccc1 [Form A, 2-(5-(4-(2-morpholinoethoxy)phenyl)pyridin-2-yl)-N-benzylacetamide] | 99.8 Area Percent | 99.8 Area Percent | 99.8 Area Percent | 99.8 Area Percent | 99.8 Area Percent | 99.8 Area Percent | 99.8 Area Percent | 99.8 Area Percent | 99.8 Area Percent | 99.8 Area Percent | 99.8 Area Percent | 99.8 Area Percent | 99.7 Area Percent | 99.8 Area Percent | 99.8 Area Percent | 99.8 Area Percent | 99.7 Area Percent | 99.7 Area Percent | 99.7 Area Percent | 99.8 Area Percent | change in HPLC area percent purity (LCAP) [1]: no significant decrease; crystallinity after drying (XRPD) [4]: no loss of crystallinity; hygroscopicity [2]: non-hygroscopic; XRPD pattern after exposure to DVS experiment [2]: does not change; water uptake [2]: less than 0.2 % w/w; change in physical form (XRPD) ([3]; 25° C./60% RH): no change in physical form; change in physical form (XRPD) ([3]; 40° C./75% RH): no change in physical form; change in physical form (XRPD) ([3]; 55° C./75% RH): no change in physical form; change in physical form (XRPD) ([3]; ambient conditions): no change in physical form; solubility thermodynamic (Solubility estimation; aqueous, thermodynamic from solid): < 1500 µg/mL; solubility (Solubility estimation; water, thermodynamic from solid, aqueous solution (e.g., water), room temperature, read-out: aqueous solubility (dissolved completely)): > 20 mg/mL
